According to publication PMC12892976, “Alkylation-based optimization of antifungal FPPS inhibitors yields a potent, broad-spectrum lipophilic zoledronate derivative” (mBio, 2025):
Read-outs that look alike come from different tables or passages of the source.

What was measured:
[1] = test system: Saccharomyces cerevisiae; assay: MIC/MFC broth microdilution (CLSI); assay type: cell-based; conditions: Saccharomyces cerevisiae S288c
Protocol: (§1) Antifungal susceptibility was determined by broth microdilution according to the CLSI guidelines described in M27-Ed4 ([16]). […] MFC was determined by back-plating drug-treated cultures from MIC broths onto SDA plates. The MFC was defined as the lowest concentration from which no colonies could be cultured.

[2] = test system: Candida albicans; assay: MIC/MFC broth microdilution (CLSI); assay type: cell-based; conditions: Candida albicans SC5314
Protocol: as §1

[3] = test system: Cryptococcus deuterogattii; assay: checkerboard drug interaction (FICI, MICc);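 on all read-outs here: simplified diagonal checkerboard screen pairing antifungal drugs with FPPS inhibitors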; assay type: cell-based; conditions: C. deuterogattii; for INH FD (MIC-MICc fold decrease): fold decrease of inhibitor MIC
Protocol: (§2) Drug interactions between antifungals and FPPS inhibitors were investigated using a simplified checkerboard diagonal screening method ([45]). […] FICIs were determined according to the Loewe additivity model ([17]).

[4] = test system: Cryptococcus neoformans; assay: checkerboard drug interaction (FICI, MICc);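 on all read-outs here: antifungal plus FPPS inhibitor pairs tested against Cryptococcus neoformans by simplified diagonal checkerboard screening, FICI computed under the Loewe additivity model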; assay type: cell-based; conditions: C. neoformans; for INH FD (MIC-MICc fold decrease): fold decrease of inhibitor MIC
Protocol: as §2

[5] = test system: Saccharomyces cerevisiae; assay: checkerboard drug interaction (FICI, MICc);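 on all read-outs here: simplified diagonal checkerboard screen pairing antifungals with FPPS inhibitors, FICI calculated under the Loewe additivity model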; assay type: cell-based; parameters: INH MICc / INH MICc (ITR:INH) / INH MICc (KET:INH) / INH MICc (FLC:INH): unit not given beside the values; conditions: S. cerevisiae; for INH FD (MIC-MICc fold decrease): fold decrease of inhibitor MIC
[6] = test system: Candida glabrata; assay: checkerboard drug interaction (FICI, MICc);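 on all read-outs here: simplified diagonal checkerboard screen pairing antifungals with FPPS inhibitors, FICI calculated under the Loewe additivity model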; assay type: cell-based; conditions: C. glabrata; for INH FD (MIC-MICc fold decrease): fold decrease of inhibitor MIC
Protocol: as §2

[7] = test system: Candida albicans; assay: checkerboard drug interaction (FICI, MICc);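 on all read-outs here: antifungal plus FPPS inhibitor combinations on Candida albicans tested by a simplified diagonal checkerboard screen, with FICI calculated under the Loewe additivity model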; assay type: cell-based; conditions: C. albicans; for INH FD (MIC-MICc fold decrease): fold decrease of inhibitor MIC
Protocol: as §2

[8] = test system: Aspergillus flavus; assay: checkerboard drug interaction (FICI, MICc);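 further: simplified diagonal checkerboard screen pairing azole antifungals with FPPS inhibitors, FICI calculated under the Loewe additivity model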; assay type: cell-based; parameters: INH MICc (KET:INH) / INH MICc (FLC:INH): unit not given beside the values; conditions: A. flavus
[9] = test system: Aspergillus fumigatus; assay: checkerboard drug interaction (FICI, MICc);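 on all read-outs here: simplified diagonal checkerboard screen pairing antifungals with FPPS inhibitors against Aspergillus fumigatus, with FICI calculated under the Loewe additivity model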; assay type: cell-based; conditions: A. fumigatus; for INH FD (MIC-MICc fold decrease): fold decrease of inhibitor MIC
Protocol: as §2

[10] = test system: Trichophyton rubrum; assay: checkerboard drug interaction (FICI, MICc);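 further: simplified diagonal checkerboard screen pairing azole antifungals with FPPS inhibitors, FICI calculated under the Loewe additivity model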; assay type: cell-based; conditions: T. rubrum
Protocol: as §2

[11] = test system: HEK-293T cells; assay: MTT reduction cytotoxicity assay; assay type: cell-based; conditions: Homo sapiens, HEK-293T, 72 h, HEK-293T, MTT, 72 h; read-out: HEK IC50
[12] = test system: eight fungal species; assay: MIC/MFC summary across the eight fungal species of Table 1; assay type: cell-based
Protocol: The antifungal activity of these compounds was evaluated according to CLSI guidelines ([16]).

[13] = test system: eight fungal species; assay: checkerboard interaction with azoles, summary across the eight species; assay type: cell-based; conditions: geometric mean MIC in combination with azoles
Text: Synergy between lipophilic FPPS inhibitors and azole antifungals was investigated by determining the fractional inhibitory concentration index (FICI) (Fig. 2; Table S1 Fig. S1) ([17]). […]. Derivatives PLA9 and 11, and PDA9, 11, and 12 antagonized azoles in C. albicans, C. neoformans, and C. deuterogattii, yet were largely synergistic in C. glabrata and S. cerevisiae. […].

[14] = test system: Cryptococcus deuterogattii; assay: MIC/MFC broth microdilution (CLSI); conditions: Cryptococcus deuterogattii;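 further: broth microdilution per CLSI M27-Ed4. MFC is the lowest concentration yielding no colonies when MIC broths are subcultured onto SDA plates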
Protocol: as §1

[15] = test system: Cryptococcus neoformans; assay: MIC/MFC broth microdilution (CLSI); conditions: Cryptococcus neoformans;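 further: susceptibility testing followed the CLSI M27-Ed4 broth microdilution document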
Protocol: as §1

[16] = test system: Candida glabrata; assay: MIC/MFC broth microdilution (CLSI); conditions: Nakaseomyces glabratus, CBS138;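 further: broth microdilution following CLSI M27-Ed4, MFC taken as the lowest drug level yielding no growth once MIC wells were subcultured on SDA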
Protocol: as §1

[17] = test system: Aspergillus flavus; assay: MIC/MFC broth microdilution (CLSI); conditions: ATCC204304
Protocol: as §1

[18] = test system: Aspergillus fumigatus; assay: MIC/MFC broth microdilution (CLSI); conditions: ATCC204305
Protocol: as §1

[19] = test system: Trichophyton rubrum; assay: MIC/MFC broth microdilution (CLSI); conditions: Trichophyton rubrum
Protocol: as §1

[20] = FLC:INH combination, MIC of the inhibitor in combination with FLC
[21] = FLC:INH combination, fold decrease of FLC MIC
[22] = ITR:INH combination, MIC of the inhibitor in combination with ITR
[23] = ITR:INH combination, fold decrease of ITR MIC
[24] = KET:INH combination, MIC of the inhibitor in combination with KET
[25] = KET:INH combination, fold decrease of KET MIC
[26] = FLC:INH combination, MIC of FLC in combination with the inhibitor
[27] = ITR:INH combination, MIC of ITR in combination with the inhibitor
[28] = KET:INH combination, MIC of KET in combination with the inhibitor
[29] = Fractional Inhibitory Concentration Index, fluconazole + inhibitor
[30] = Fractional Inhibitory Concentration Index, itraconazole + inhibitor
[31] = Fractional Inhibitory Concentration Index, ketoconazole + inhibitor
[32] = MIC of the inhibitor in combination with fluconazole
[33] = MIC of the inhibitor in combination with itraconazole
[34] = MIC of the inhibitor in combination with ketoconazole
[35] = MIC-MICc fold decrease of fluconazole, negative = increase
[36] = MIC-MICc fold decrease of itraconazole, negative = increase
[37] = MIC-MICc fold decrease of ketoconazole, negative = increase
[38] = MIC-MICc fold decrease of the inhibitor, with fluconazole
[39] = MIC-MICc fold decrease of the inhibitor, with itraconazole
[40] = MIC-MICc fold decrease of the inhibitor, with ketoconazole

CCCCCCCCCN1CCC[C@H]1C(=O)N[C@@H](CC(=O)O)C(=O)O [PLA9]
MFC [1]: > 128 µg/mL
MIC [1]: > 128 µg/mL
MFC [2]: > 128 µg/mL
MIC [2]: > 128 µg/mL
FICI ([3]; FLC:INH combination): ≥4
INH MICc [3, 20]: 256
FLC FD (MIC-MICc fold decrease) [3, 21]: -4
INH FD (MIC-MICc fold decrease) ([3]; FLC:INH combination): 1
FICI ([3]; ITR:INH combination): ≥4
INH MICc [3, 22]: 256
ITR FD (MIC-MICc fold decrease) [3, 23]: < -4
INH FD (MIC-MICc fold decrease) ([3]; ITR:INH combination): 1
FICI ([3]; KET:INH combination): 1
INH MICc [3, 24]: 128
KET FD (MIC-MICc fold decrease) [3, 25]: 2
INH FD (MIC-MICc fold decrease) ([3]; KET:INH combination): 2
FICI ([4]; FLC:INH combination): ≥4
INH MICc [4, 20]: 256
FLC FD (MIC-MICc fold decrease) [4, 21]: < -4
INH FD (MIC-MICc fold decrease) ([4]; FLC:INH combination): 1
FICI ([4]; ITR:INH combination): ≥4
INH MICc [4, 22]: 128
ITR FD (MIC-MICc fold decrease) [4, 23]: -4
INH FD (MIC-MICc fold decrease) ([4]; ITR:INH combination): 2
FICI ([4]; KET:INH combination): ≥4
INH MICc [4, 24]: 128
KET FD (MIC-MICc fold decrease) [4, 25]: -4
INH FD (MIC-MICc fold decrease) ([4]; KET:INH combination): 2
FICI ([5]; FLC:INH combination): 0.31
FLC MICc [5, 26]: 1
INH MICc [5, 20]: 16
FLC FD (MIC-MICc fold decrease) [5, 21]: 4
INH FD (MIC-MICc fold decrease) ([5]; FLC:INH combination): 16
FICI ([5]; ITR:INH combination): 0.5
ITR MICc [5, 27]: 0.063
INH MICc [5, 22]: 64
ITR FD (MIC-MICc fold decrease) [5, 23]: 4
INH FD (MIC-MICc fold decrease) ([5]; ITR:INH combination): 4
FICI ([5]; KET:INH combination): 0.19
KET MICc [5, 28]: 0.25
INH MICc [5, 24]: 16
KET FD (MIC-MICc fold decrease) [5, 25]: 8
INH FD (MIC-MICc fold decrease) ([5]; KET:INH combination): 16
FICI ([6]; FLC:INH combination): 0.31
INH MICc [6, 20]: 4
FLC FD (MIC-MICc fold decrease) [6, 21]: 4
INH FD (MIC-MICc fold decrease) ([6]; FLC:INH combination): 64
FICI ([6]; ITR:INH combination): 0.28
INH MICc [6, 22]: 2
ITR FD (MIC-MICc fold decrease) [6, 23]: 4
INH FD (MIC-MICc fold decrease) ([6]; ITR:INH combination): 128
FICI ([6]; KET:INH combination): 0.28
INH MICc [6, 24]: 2
KET FD (MIC-MICc fold decrease) [6, 25]: 4
INH FD (MIC-MICc fold decrease) ([6]; KET:INH combination): 128
FICI ([7]; FLC:INH combination): ≥4
INH MICc [7, 20]: 64
FLC FD (MIC-MICc fold decrease) [7, 21]: < -4
INH FD (MIC-MICc fold decrease) ([7]; FLC:INH combination): 4
FICI ([7]; ITR:INH combination): 0.52
INH MICc [7, 22]: 4
ITR FD (MIC-MICc fold decrease) [7, 23]: 2
INH FD (MIC-MICc fold decrease) ([7]; ITR:INH combination): 64
FICI ([7]; KET:INH combination): ≥4
INH MICc [7, 24]: 64
KET FD (MIC-MICc fold decrease) [7, 25]: < -4
INH FD (MIC-MICc fold decrease) ([7]; KET:INH combination): 4
FICI (FLC:INH) [8, 29]: 2
FICI (ITR:INH) [8, 30]: 1.5
FICI (KET:INH) [8, 31]: 1
INH MICc (FLC:INH) [8, 32]: 256
INH MICc (ITR:INH) [8, 33]: 128
INH MICc (KET:INH) [8, 34]: 128
FLC FD (FLC:INH) [8, 35]: 1
ITR FD (ITR:INH) [8, 36]: 1
KET FD (KET:INH) [8, 37]: 2
INH FD (FLC:INH) [8, 38]: 1
INH FD (ITR:INH) [8, 39]: 2
INH FD (KET:INH) [8, 40]: 2
FICI ([9]; FLC:INH combination): 2
FLC MICc [9, 26]: 128
INH MICc [9, 20]: 256
FLC FD (MIC-MICc fold decrease) [9, 21]: 1
INH FD (MIC-MICc fold decrease) ([9]; FLC:INH combination): 1
FICI ([9]; ITR:INH combination): 0.51
ITR MICc [9, 27]: 0.063
INH MICc [9, 22]: 2
ITR FD (MIC-MICc fold decrease) [9, 23]: 2
INH FD (MIC-MICc fold decrease) ([9]; ITR:INH combination): 128
FICI ([9]; KET:INH combination): 1.5
KET MICc [9, 28]: 4
INH MICc [9, 24]: 128
KET FD (MIC-MICc fold decrease) [9, 25]: 1
INH FD (MIC-MICc fold decrease) ([9]; KET:INH combination): 2
FICI (FLC:INH) [10, 29]: 3
FICI (ITR:INH) [10, 30]: 2
FICI (KET:INH) [10, 31]: 1.5
INH MICc (FLC:INH) [10, 32]: 256
INH MICc (ITR:INH) [10, 33]: 256
INH MICc (KET:INH) [10, 34]: 128
FLC FD (FLC:INH) [10, 35]: -2
ITR FD (ITR:INH) [10, 36]: 1
KET FD (KET:INH) [10, 37]: 1
INH FD (FLC:INH) [10, 38]: 1
INH FD (ITR:INH) [10, 39]: 1
INH FD (KET:INH) [10, 40]: 2
IC50 [11]: > 256 µg/mL
MFC ([12]; across eight species, read-out: Geometric mean MFC): > 128 µg/mL
MIC ([12]; geometric mean across eight species, read-out: GM fungal MIC): > 128 µg/mL
MIC ([12]; read-out: Geometric mean MIC): > 128 µg/mL
GM fungal MICc [13]: 53.8
MFC [14]: > 128 µg/mL
MIC [14]: > 128 µg/mL
MFC [15]: > 128 µg/mL
MIC [15]: > 128 µg/mL
MFC [16]: > 128 µg/mL
MIC [16]: > 128 µg/mL
MFC [17]: > 128 µg/mL
MIC [17]: > 128 µg/mL
MFC [18]: > 128 µg/mL
MIC [18]: > 128 µg/mL
MFC [19]: > 128 µg/mL
MIC [19]: > 128 µg/mL
